Reference: article PMC5177531 (ACS chemical neuroscience, 2016)
Like-named read-outs stand apart in the source and are kept apart here. Non-standard residues stand in square brackets, D forms with d. Residues, ends and D or L forms follow the SMILES beside them. Dmt = Cc1cc(O)cc(C)c1C[C@H](N)C(=O)O; Tic = O=C(O)[C@@H]1Cc2ccccc2CN1; βAla = NCCC(=O)O; Sar = CNCC(=O)O

Legend:
[1] = molecular target: 125I-IDAPP binding sites in C57/Bl6 brain homogenates (Mus musculus, UniProt P42866)
[2] = molecular target: 3H-DAMGO binding sites in C57 brain tissue (Mus musculus, UniProt P42866)
[3] = molecular target: MOR-1 (Mus musculus, UniProt P42866); assay: Competition of 3H-DAMGO binding in CHO cells expressing MOR-1
[4] = test system: MOR-1 variants (Oprm1); conditions: mouse, in vivo; cited from earlier work
[5] = test system: C57Bl/6 wild type (WT) and exon 11 KO (E11 KO) mice; assay: Radiant heat tail flick analgesia in wild type and exon 11 KO mice; format: in vivo, mouse; conditions: for analgesic ED50: tail flick
[6] = test system: CD-1 mice; assay: Cross tolerance in morphine pelleted mice, tail flick analgesia; format: in vivo, mouse; conditions: for analgesic ED50: i.c.v., 72 hr
[7] = test system: MOR-1 variants (Oprm1); format: in vivo, mouse; conditions: knockout and/or antisense models; Figs. 2,3,4
[8] = test system: brain membranes (WT, E11 KO, E1/E11 KO); assay: 35S-GTPγS binding in brain membranes
[9] = molecular target: mMOR (Mus musculus, UniProt P42866); assay: 35S-GTPγS binding in mMOR-CHO membranes; conditions: read-out: Max stimulation (% over basal)
[10] = molecular target: mDOR (Mus musculus, UniProt P32300); assay: 35S-GTPγS binding in mDOR-CHO membranes; conditions: read-out: Max stimulation (% over basal)
[11] = molecular target: mKOR (Mus musculus, UniProt P33534); assay: 35S-GTPγS binding in mKOR-CHO membranes; conditions: read-out: Max stimulation (% over basal)
[12] = molecular target: spinal cord membranes (WT, E11 KO) (Mus musculus, UniProt P42866); assay: 35S-GTPγS binding in spinal cord membranes
[13] = molecular target: mMOR-1 (Mus musculus, UniProt P42866); assay: Competition binding versus 125I-IBNtxA in mMOR-CHO membranes
[14] = molecular target: mDOR-1 (Mus musculus, UniProt P32300); assay: Competition binding versus 125I-IBNtxA in mDOR-CHO membranes
[15] = molecular target: mKOR-1 (Mus musculus, UniProt P33534); assay: Competition binding versus 125I-IBNtxA in mKOR-CHO membranes
[16] = molecular target: 6TM/E11 (Mus musculus, UniProt P42866); assay: Competition binding versus 125I-IBNtxA at the 6TM-containing
[17] = test system: E1/E11 KO and E11 KO mice; conditions: cited from earlier work
[18] = test system: C57Bl/6 wild type (WT) and exon 11 KO (E11 KO) mice; conditions: cited from earlier work
[19] = E11 KO mice, supraspinal (i.c.v.; IDAPP also i.t.)
[20] = 0.1 nM 125I-IDAPP, C57/Bl6 brain homogenates, no blockers

C[C@@H](O)[C@H](NC(=O)[C@H]1NC(=O)[C@H]([C@@H](C)O)NC(=O)[C@H](CCCN=C(N)N)NC(=O)[C@@H](Cc2c[nH]c3ccccc23)NC(=O)[C@H](Cc2ccc(O)cc2)NC(=O)[C@@H](NC(=O)[C@H](N)Cc2ccccc2)CSSC1(C)C)C(N)=O [CTAP, D-Phe-Cys-Tyr-D-Trp-Arg-Thr-Pen-Thr-NH2]
Ki [1]: 0.0011 ± 0.0003 µM
IC50 [2]: 0.0041 ± 0.0002 µM
IC50 [3]: 0.0048 ± 0.0004 µM

Clc1cccc(Cl)c1N=C1NCCN1 [Clonidine]
MOR-1 Variants required for analgesia [4]: 6TM

C[C@@H](NC(=O)[C@@H](N)Cc1ccc(O)cc1)C(=O)NCC(=O)N(C)[C@@H](Cc1ccccc1)C(=O)NCCO [DAMGO, [D-Ala^2,N-MePhe^4,Gly(ol)^5]-enkephalin]
analgesic ED50 ([5]; E11 KO mice, i.c.v.): 0.23 µg
analgesic ED50 ([5]; E11 KO mice, i.t.): 0.27 µg
analgesic activity in E11 KO mice ([5]; E11 KO mice, spinal (i.t.)): still elicited a full response
analgesic activity in E11 KO mice [5, 19]: retained full analgesic activity
analgesic ED50 ([5]; WT C57Bl/6 mice, i.c.v.): 0.13 µg
analgesic ED50 ([5]; WT C57Bl/6 mice, i.t.): 0.02 µg
analgesic ED50 ([6]; morphine pellet (75 mg free base) CD-1 mice): 1.5 ± 0.47 µg
analgesia in morphine pelleted mice (cross tolerance) ([6]; morphine pelleted versus placebo): cross tolerant with morphine
analgesic ED50 ([6]; placebo pellet CD-1 mice): 0.04 ± 0.02 µg
Hill Slope [1, 20]: −0.9 ± 0.1
MOR-1 Variants required for analgesia [7]: 7TM
Max stimulation (% over basal) ([8]; E1/E11 KO): −6 ± 1 % over basal
EC50 ([8]; E11 KO): 0.22 ± 0.013 µM
Max stimulation (% over basal) ([8]; E11 KO): 19 ± 6 % over basal
EC50 ([8]; WT): 0.19 ± 0.008 µM
Max stimulation (% over basal) ([8]; WT): 15 ± 2 % over basal
Emax [9]: 396 ± 21%
Emax [10]: -2 ± 7%
Emax [11]: -16 ± 8%
Emax ([12]; read-out: Max stimulation (% over basal), spinal cord, E11 KO): 7 ± 4%
Emax ([12]; read-out: Max stimulation (% over basal), spinal cord, WT): 11 ± 2%

CC[C@H](C)[C@H](NC(=O)[C@H](Cc1ccccc1)NC(=O)[C@H](Cc1ccccc1)NC(=O)[C@@H](C)NC(=O)[C@@H](N)Cc1c(C)cc(O)cc1C)C(N)=O [DAPPI, Dmt-D-Ala-Phe-Phe-Ile-NH2] (H-[Dmt][dA]FFI-NH2)
Ki [13]: 0.0003 ± 0.0001 µM
Ki [14]: 0.0003 ± 0.0002 µM
Ki [15]: 0.007 ± 0.0004 µM

C[C@@H](NC(=O)[C@@H](N)Cc1ccc(O)cc1)C(=O)N[C@@H](Cc1ccccc1)C(=O)NCC(=O)N[C@@H](Cc1ccc(O)cc1)C(=O)N1CCC[C@H]1C(=O)N[C@@H](CO)C(N)=O [Dermorphin, Tyr-D-Ala-Phe-Gly-Tyr-Pro-Ser-NH2]
Ki [16]: > 0.5 µM
Ki [13]: 0.004 ± 0.0005 µM

Cc1cccc([C@H](C)c2cnc[nH]2)c1C [Dexmedetomidine]
MOR-1 Variants required for analgesia [4]: 6TM

NC(=O)[C@H](Cc1ccccc1)NC(=O)[C@H](Cc1c[nH]c2ccccc12)NC(=O)[C@@H]1CCCN1C(=O)[C@@H](N)Cc1ccc(O)cc1 [Endomorphin 1, Tyr-Pro-Trp-Phe-NH2]
analgesic activity in E11 KO mice [5, 19]: eliminated the analgesic response
analgesic ED50 ([5]; WT C57Bl/6 mice, i.c.v.): 3.39 µg
Hill Slope [1]: −0.7 ± 0.1
MOR-1 Variants required for analgesia [7]: 7TM + 6TM
Max stimulation (% over basal) ([8]; E1/E11 KO): −5 ± 3 % over basal
EC50 ([8]; E11 KO): 0.017 ± 0.007 µM
Max stimulation (% over basal) ([8]; E11 KO): 23 ± 1 % over basal
EC50 ([8]; WT): 0.222 ± 0.031 µM
Max stimulation (% over basal) ([8]; WT): 39 ± 2 % over basal
Emax [10]: -3 ± 1%

NC(=O)[C@H](Cc1ccccc1)NC(=O)[C@H](Cc1ccccc1)NC(=O)[C@@H]1CCCN1C(=O)[C@@H](N)Cc1ccc(O)cc1 [Endomorphin 2, Tyr-Pro-Phe-Phe-NH2]
analgesic activity in E11 KO mice [5, 19]: eliminated the analgesic response
analgesic ED50 ([5]; WT C57Bl/6 mice, i.c.v.): 1.14 µg
MOR-1 Variants required for analgesia [7]: 7TM + 6TM
Max stimulation (% over basal) ([8]; E1/E11 KO): 1 ± 1 % over basal
EC50 ([8]; E11 KO): 0.103 ± 0.008 µM
Max stimulation (% over basal) ([8]; E11 KO): 24 ± 2 % over basal
EC50 ([8]; WT): 0.151 ± 0.043 µM
Max stimulation (% over basal) ([8]; WT): 35 ± 1 % over basal
Emax [10]: -3 ± 2%

O=C(N[C@@H]1CC[C@@]2(O)[C@H]3Cc4ccc(O)c5c4[C@@]2(CCN3CC2CC2)[C@H]1O5)c1cccc(I)c1 [IBNtxA, 3-iodobenzoyl-6β-naltrexamide]
rescue of analgesia by mMOR-1G lentivirus in E1/E11 KO mice [17]: able to rescue
MOR-1 Variants required for analgesia [4]: 6TM

C[C@H]1[C@H]2C(=O)c3ccc(O)cc3[C@@]1(C)CCN2CC1CC1 [Ketocyclazocine]
MOR-1 Variants required for analgesia [4]: 6TM

CN1CC[C@]23c4c5ccc(O)c4O[C@H]2[C@@H](O[C@@H]2O[C@H](C(=O)O)[C@@H](O)[C@H](O)[C@H]2O)C=C[C@H]3[C@H]1C5 [M6G]
Hill Slope [1]: −0.6 ± 0.1
Ki [1]: 0.0007 ± 0.0003 µM

CN1CC[C@]23c4c5ccc(O)c4O[C@H]2[C@@H](O)C=C[C@H]3[C@H]1C5 [Morphine]
analgesic activity in E11 KO mice [18]: maintaining full analgesic activity

Oc1ccc2c3c1O[C@H]1c4[nH]c5ccccc5c4C[C@@]4(O)[C@@H](C2)N(CC2CC2)CC[C@]314 [Naltrindole]
Ki [1, 20]: > 1 µM

Oc1ccc2c3c1O[C@H]1c4[nH]c5c(c4C[C@@]4(O)[C@@H](C2)N(CC2CC2)CC[C@]314)C[C@@]1(O)[C@H]2Cc3ccc(O)c4c3[C@@]1(CCN2CC1CC1)[C@H]5O4 [NorBNI]
Ki [1, 20]: > 1 µM

C=CCN1C[C@H](C)N([C@H](c2ccc(C(=O)N(CC)CC)cc2)c2cccc(OC)c2)C[C@H]1C [SNC80]
Ki [1]: > 1 µM
MOR-1 Variants required for analgesia [4]: 7TM + 6TM

COC(=O)[C@@H]1C[C@H](OC(C)=O)C(=O)[C@H]2[C@@]1(C)CC[C@H]1C(=O)O[C@H](c3ccoc3)C[C@]21C [Salvinorin A]
MOR-1 Variants required for analgesia [4]: 6TM

C[C@@H](NC(=O)[C@@H](N)Cc1ccc(O)cc1)C(=O)N[C@@H](Cc1ccccc1)C(=O)NCCC(N)=O [TAPA, Tyr-D-Ala-Phe-βAla-NH2] (H-Y[dA]F[βAla]-NH2)
Ki [16]: 0.04 ± 0.007 µM
Ki [13]: 0.011 ± 0.0003 µM
Ki [14]: 0.048 ± 0.001 µM
Ki [15]: > 0.5 µM

C[C@@H](NC(=O)[C@@H](N)Cc1ccc(O)cc1)C(=O)N[C@@H](Cc1ccccc1)C(=O)N[C@@H](Cc1ccccc1)C(N)=O [TAPP, Tyr-D-Ala-Phe-Phe-NH2] (H-Y[dA]FF-NH2)
Ki [16]: 0.13 ± 0.016 µM
Ki [13]: 0.003 ± 0.0002 µM
Ki [14]: 0.003 ± 0.0001 µM
Ki [15]: > 0.5 µM

CC[C@H](C)[C@H](NC(=O)[C@H](Cc1ccccc1)NC(=O)[C@H](Cc1ccccc1)NC(=O)[C@@H](C)NC(=O)[C@@H](N)Cc1ccc(O)cc1)C(N)=O [TAPPI, Tyr-D-Ala-Phe-Phe-Ile-NH2] (H-Y[dA]FFI-NH2)
Ki [16]: 0.1 ± 0.01 µM
Ki [13]: 0.0002 ± 0.0002 µM
Ki [14]: 0.006 ± 0.0001 µM

CC(C)[C@H](NC(=O)[C@H](Cc1ccccc1)NC(=O)[C@H](Cc1ccccc1)NC(=O)[C@@H](C)NC(=O)[C@@H](N)Cc1ccc(O)cc1)C(N)=O [TAPPV, Tyr-D-Ala-Phe-Phe-Val-NH2] (H-Y[dA]FFV-NH2)
Ki [16]: > 0.5 µM
Ki [13]: > 0.5 µM

C[C@@H](NC(=O)[C@@H](N)Cc1ccc(O)cc1)C(=O)N[C@@H](Cc1ccccc1)C(=O)N(C)CC(N)=O [TAPS, Tyr-D-Ala-Phe-Sar-NH2] (H-Y[dA]F[Sar]-NH2)
Ki [16]: 0.05 ± 0.008 µM
Ki [13]: 0.006 ± 0.0007 µM
Ki [14]: 0.035 ± 0.002 µM
Ki [15]: > 0.5 µM

N[C@@H](Cc1ccc(O)cc1)C(=O)N1Cc2ccccc2C[C@H]1C(=O)N[C@@H](Cc1ccccc1)C(=O)N[C@@H](Cc1ccccc1)C(=O)O [TIPP, Tyr-Tic-Phe-Phe-OH] (H-Y[Tic]FF-OH)
Ki [16]: 0.163 ± 0.012 µM
Ki [13]: > 0.5 µM
Ki [15]: > 0.5 µM

DPDPE
MOR-1 Variants required for analgesia [4]: 7TM + 6TM
